# pEC50: −log10 of the molar value.
# How the values were obtained:
# GLP-1 Receptor = GLP-1 Receptor (Homo sapiens, UniProt P43220); test: GLP-1R agonist cAMP stimulation assay (HEK293/GLP1R/CRE-LUC cells, Cisbio cAMP dynamic 2 kit); type: cell-based
# How it was run: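 cAMP was measured by HTRF (d2/cryptate, 1 h RT, 665 and 615 nm). Beforehand, compounds in half-log series were incubated 30 min at 37 °C with GLP-1R/CRE-Luc HEK293 cells (1000 per well) in IBMX (0.5 mM)-containing DPBS/BSA. Activity scaled between vehicle and maximal control.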
# [1] = Caco-2 permeability / efflux study; type: in vitro ADME; details: human; for Papp at 2 h, 10 μM: Caco-2, pH 7.4, 10 μM, 37° C., pH 7.4, 0.5% BSA, read-out: Caco-2 Perm; for efflux ratio at 2 h, 10 μM: Caco-2, pH 7.4, Caco-2 efflux ratio
# Experimental: Incubations with Caco-2 cell monolayers were performed in duplicate in a 96-well Transwell plate. Transport buffer solution (HBSS, 10 mM HEPES, pH 7.4, with 0.5% BSA) containing test article (10 μM), and either the control compounds metoprolol (10 μM), cimetidine (10 μM) and erythromycin (10 μM), was added to appropriate donor wells of the apical or basolateral plate. The transport buffer with DMSO was added to appropriate wells of receiver wells. Following incubation at 37° C. for 2 hours, the cell plates were removed and 50 μL samples from both apical and basolateral sides were transferred into new 96-well plates. Subsequently, 200 μL of acetonitrile containing internal standard was added to all samples to precipitate protein prior to analysis by UPLC-MS/MS. Lucifer yellow was used as a marker to confirm the integrity of the cell monolayers after 2 hours incubation.
# FaSSIF solubility = type: physicochemical; details: FaSSIF buffer, 25 °C, fassif, thermodynamic from solid
# Experimental: Stock solution of test article and control compound (chlorpromazine, astemizole, and phenytoin) were prepared in DMSO at 10 mM. 50 μL each of stock solutions were dried down, followed by reconstitution to 1 mM with FaSSIF buffer in the well. The incubation plate was shaked at 25° C., 1,100 rpm for 4 hours. And then, the samples were filtered by using the vacuum manifold. 10 μL aliquots from each well was transferred to a new 96-well plate and adjust the volume to 80 μL with blank buffer. Using a mixture of H2O and acetonitrile containing internal standard (1:1) to dilute the sample 100-fold, 500-fold and 2,500-fold. The samples are evaluated by LC/MS/MS analysis. All compounds were tested in singlet.
# [2] = Rat IV/PO PK study, Method A; type: in vivo, male Sprague Dawley (SD) rats; details: for AUC (ng · h/mL)_free form/dose: PO, 5 mpk, free form; for half-life / bioavailability: male, Sprague Dawley, plasma, Method A; for half-life: 1 mg/kg, elimination half life (IV); for bioavailability: PO vs IV, read-out: Bioavailablility (% F)
# Experimental: Pharmacokinetics (PK) study was conducted on male Sprague Dawley (SD) rats by two delivery routes intravenous (IV) and/or oral gavage (PO). Rats in IV route (n=3) were free access to food and water. Rats in PO route (n=3) were fasted overnight and fed at 4 hrs post dosing. Test article was formulated in solution (10% solutol HS 15 in saline) for IV route and solution or suspension (10% solutol HS 15 in saline/water) for PO route, respectively. On the day of experiment, test article was administered via vein (e.g. foot dorsal vein) injection (commonly at 1 mg/kg and 5 mL/kg) for IV route or via oral gavage (commonly at 2 or 5 mg/kg and 5 mL/kg) for PO route, respectively. Blood samples were collected via serial bleeding at ˜8 time points from 0.083 to 24 hrs post dose. Approximate 150 μL of blood/time point was collected into K2EDTA tube via tail vein or jugular vein. Blood samples were put on wet ice and centrifuged to obtain plasma samples and plasma samples were submitted to LC-MS/MS for sample analysis. Pharmacokinetics parameters, including elimination half life (t1/2) (IV), area under the curve (AUC) and oral bioavailability (F %), etc. were calculated by non-compartmental model using WinNonlin.
# [3] = Table 3, HEK293/GLP1R/CRE-LUC cells, 30 min
# Chain of GLP-1 Receptor (P43220 24-463, species assumed): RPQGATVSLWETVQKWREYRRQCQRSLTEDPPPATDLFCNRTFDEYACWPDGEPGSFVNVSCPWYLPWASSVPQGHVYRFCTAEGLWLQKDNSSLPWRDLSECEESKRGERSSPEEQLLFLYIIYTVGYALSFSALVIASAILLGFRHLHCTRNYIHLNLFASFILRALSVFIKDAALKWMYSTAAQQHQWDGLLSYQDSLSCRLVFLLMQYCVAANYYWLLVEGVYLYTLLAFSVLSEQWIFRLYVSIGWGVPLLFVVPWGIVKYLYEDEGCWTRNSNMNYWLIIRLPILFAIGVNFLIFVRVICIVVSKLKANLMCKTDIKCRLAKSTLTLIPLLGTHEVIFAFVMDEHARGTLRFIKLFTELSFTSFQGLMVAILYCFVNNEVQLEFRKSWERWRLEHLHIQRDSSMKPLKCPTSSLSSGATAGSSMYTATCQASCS
SMILES,pEC50 (GLP-1 Receptor; [3]),pEC50 (GLP-1 Receptor; Table 4),"Papp at 2 h, 10 μM [1]","efflux ratio at 2 h, 10 μM [1]",solubility at 4 h (FaSSIF solubility),AUC (ng · h/mL)_free form/dose [2],half-life [2],bioavailability [2]
"CN=S(C)(=O)c1ccc(-n2ccn(-c3c4c(nn3-c3cc(C)c(F)c(C)c3)CCN(C(=O)c3cc5cc(C6CCOCC6)ccc5n3[C@@]3(c5noc(=O)[nH]5)C[C@@H]3C)[C@H]4C)c2=O)cc1 (single isomer, unassigned) [Compound 121]",10.72,10.82,0.1 ×10⁻⁶ cm/s,90.8,7.3 µM,,,
"CCS(=O)(=NC)c1ccc(-n2ccn(-c3c4c(nn3-c3cc(C)c(F)c(C)c3)CCN(C(=O)c3cc5cc(C6CCOCC6)ccc5n3[C@@]3(c5noc(=O)[nH]5)C[C@@H]3C)[C@H]4C)c2=O)cc1 (single isomer, unassigned) [Compound 144]",10.77,10.77,0.36 ×10⁻⁶ cm/s,24.1,2.56 µM,,,
"CCS(=O)(=NC)c1ccc(-n2ccn(-c3c4c(nn3-c3cc(C)c(F)c(C)c3)CCN(C(=O)c3cc5cc(C6CCOCC6)ccc5n3[C@@]3(c5noc(=O)[nH]5)C[C@@H]3C)[C@H]4C)c2=O)c(F)c1 (single isomer, unassigned) [Compound 149]",10.64,10.64,0.33 ×10⁻⁶ cm/s,26,2.04 µM,"4,276/5 mpk ng · h/mL",1.6 h,32%
"CCS(=O)(=NC)c1ccc(-n2ccn(-c3c4c(nn3-c3cc(C)c(F)c(C)c3)CCN(C(=O)c3cc5cc(C6CCOCC6)ccc5n3[C@@]3(c5noc(=O)[nH]5)C[C@@H]3C)[C@H]4C)c2=O)c(Cl)c1 (single isomer, unassigned) [Compound 151]",10.14,10.14,0.3 ×10⁻⁶ cm/s,36.8,,,,
"Cc1cc(-n2nc3c(c2-n2ccn(-c4ccc(S(=N)(=O)C5CCC5)cc4F)c2=O)[C@H](C)N(C(=O)c2cc4cc(C5CCOCC5)ccc4n2[C@@]2(c4noc(=O)[nH]4)C[C@@H]2C)CC3)cc(C)c1F (single isomer, unassigned) [Compound 168]",10.96,10.96,0.21 ×10⁻⁶ cm/s,50,,,,
"Cc1cc(-n2nc3c(c2-n2ccn(-c4ccc(S(=N)(=O)C5CC5)cc4F)c2=O)[C@H](C)N(C(=O)c2cc4cc([C@H]5CCOC(C)(C)C5)ccc4n2[C@@]2(c4noc(=O)[nH]4)C[C@@H]2C)CC3)cc(C)c1F (single isomer, unassigned) [Compound 181]",10.74,10.85,0.24 ×10⁻⁶ cm/s,38,,"6,097/5 mpk ng · h/mL",1.66 h,30%
"Cc1cc(-n2nc3c(c2-n2ccn(-c4ccc(S(=N)(=O)C5CCC5)cc4F)c2=O)[C@H](C)N(C(=O)c2cc4cc([C@H]5CCOC(C)(C)C5)ccc4n2[C@@]2(c4noc(=O)[nH]4)C[C@@H]2C)CC3)cc(C)c1F (single isomer, unassigned) [Compound 183]",12.00,10.96,0.19 ×10⁻⁶ cm/s,45,,,,
"CN=S(=O)(c1ccc(-n2ccn(-c3c4c(nn3-c3cc(C)c(F)c(C)c3)CCN(C(=O)c3cc5cc([C@H]6CCOC(C)(C)C6)ccc5n3[C@@]3(c5noc(=O)[nH]5)C[C@@H]3C)[C@H]4C)c2=O)c(F)c1Cl)C1CC1 (single isomer, unassigned) [Compound 214]",10.48,10.48,0.34 ×10⁻⁶ cm/s,11.4,9.9 µM,,,
"CCS(=O)(=NC)c1ccc(-n2ccn(-c3c4c(nn3-c3cc(C)c(F)c(C)c3)CCN(C(=O)c3cc5cc([C@H]6CCOC(C)(C)C6)ccc5n3[C@@]3(c5noc(=O)[nH]5)C[C@@H]3C)[C@H]4C)c2=O)c(F)c1C (single isomer, unassigned) [Compound 216]",10.19,10.17,0.32 ×10⁻⁶ cm/s,15.7,7.9 µM,,,
"CN=S(=O)(c1ccc(-n2ccn(-c3c4c(nn3-c3cc(C)c(F)c(C)c3)CCN(C(=O)c3cc5cc([C@H]6CCOC(C)(C)C6)ccc5n3[C@@]3(c5noc(=O)[nH]5)C[C@@H]3C)[C@H]4C)c2=O)cc1NC)C1CC1 (single isomer, unassigned) [Compound 218]",10.08,10.23,0.09 ×10⁻⁶ cm/s,20.7,,,,
"CN=S(=O)(c1ccc(-n2ccn(-c3c4c(nn3-c3cc(C)c(F)c(C)c3)CCN(C(=O)c3cc5cc(C6CCOCC6)ccc5n3[C@@]3(c5noc(=O)[nH]5)C[C@@H]3C)[C@H]4C)c2=O)c(F)c1)C1CC1 (single isomer, unassigned) [Compound 221]",10.52,10.51,0.34 ×10⁻⁶ cm/s,38.5,4.05 µM,,,
"CCS(=O)(=O)c1ccc(-n2ccn(-c3c4c(nn3-c3cc(C)c(F)c(C)c3)CCN(C(=O)c3cc5cc(C6CCOCC6)ccc5n3[C@@]3(c5noc(=O)[nH]5)C[C@@H]3C)[C@H]4C)c2=O)cc1 [Compound C-1, reference compound]",,10.66,0.126 ×10⁻⁶ cm/s,51.7,4 µM,,,
"Cc1cc(-n2nc3c(c2-n2ccn(-c4ccc(S(=O)(=O)C5CC5)cc4)c2=O)[C@H](C)N(C(=O)c2cc4cc(C5CCOCC5)ccc4n2[C@@]2(c4noc(=O)[nH]4)C[C@@H]2C)CC3)cc(C)c1F [Compound C-2, reference compound]",,10.37,< 0.05 ×10⁻⁶ cm/s,> 62.6,9.3 µM,,,
"CNS(=O)(=O)c1ccc(-n2ccn(-c3c4c(nn3-c3cc(C)c(F)c(C)c3)CCN(C(=O)c3cc5cc(C6CCOCC6)ccc5n3[C@@]3(c5noc(=O)[nH]5)C[C@@H]3C)[C@H]4C)c2=O)cc1 [Compound C-3, reference compound]",,,0.05 ×10⁻⁶ cm/s,78.1,6.45 µM,,,
"Cc1cc(-n2nc3c(c2-n2ccn(-c4ccc(N5CCCS5(=O)=O)cc4)c2=O)[C@H](C)N(C(=O)c2cc4cc(C5CCOCC5)ccc4n2[C@@]2(c4noc(=O)[nH]4)C[C@@H]2C)CC3)cc(C)c1F [Compound C-4, reference compound]",,9.85,0.18 ×10⁻⁶ cm/s,16.7,5.38 µM,,,

# Reference: patent US12291529B2, “Heterocyclic GLP-1 agonists” (Gasherbrum Bio, Inc., priority 2023, dated 2025)
